Data on 19 compounds can be found in publication PMC9520911, “New quinoline-based triazole hybrid analogs as effective inhibitors of α-amylase and α-glucosidase: Preparation, in vitro evaluation, and molecular docking along with in silico studies” (Frontiers in Chemistry, 2022).

Data set [1] has as its target T1, Porcine pancreatic α-amylase (Sus scrofa, UniProt P00690).
T1 sequence (P00690 16-511): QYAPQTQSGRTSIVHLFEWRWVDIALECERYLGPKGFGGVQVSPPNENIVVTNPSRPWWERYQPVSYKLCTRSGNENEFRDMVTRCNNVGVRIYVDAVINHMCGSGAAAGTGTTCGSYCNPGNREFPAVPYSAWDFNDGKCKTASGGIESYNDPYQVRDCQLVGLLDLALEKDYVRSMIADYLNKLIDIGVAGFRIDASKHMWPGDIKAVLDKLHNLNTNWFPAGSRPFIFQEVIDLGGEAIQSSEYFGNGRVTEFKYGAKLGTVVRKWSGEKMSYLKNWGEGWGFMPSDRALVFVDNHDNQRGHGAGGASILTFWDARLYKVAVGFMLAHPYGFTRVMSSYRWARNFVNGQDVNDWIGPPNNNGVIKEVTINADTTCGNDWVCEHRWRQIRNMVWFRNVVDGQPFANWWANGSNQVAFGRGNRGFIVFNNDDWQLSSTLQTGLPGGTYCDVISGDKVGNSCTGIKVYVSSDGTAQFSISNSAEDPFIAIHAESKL
Briefly: α-amylase inhibition assay (starch / dinitrosalicylic acid). The following applies: for IC50: in vitro, mean ± SEM. Format: biochemical. On the procedure: After preincubation, 40 μL of a 1% starch solution in 0.02 M sodium phosphate buffer (pH 6.9 with 0.006 M sodium chloride) was added to each tube at 5 s intervals. […] The reaction was stopped with 100 μL of dinitro salicylic acid color reagent. The test tubes were then incubated in a boiling water bath for 5 min and cooled to room temperature. The reaction mixture was then diluted after adding 900 μL distilled water and the absorbance was measured at 540 nm.
Ac = the absorbance of the control
As = the absorbance of the sample

Broadly, the melting point is the temperature, or range, at which the solid turns liquid. One may read the IC50 as the concentration that inhibits the measured activity by half. Lower therefore signals greater potency. For `S=c1[nH]nc(-c2ccc3cccnc3c2)n1-c1ccc(Cl)c(Cl)c1` [18d, 4-(3,4-Dichlorophenyl)-5-(quinolin-7-yl)-2,4-dihydro-3H-1,2,4-triazole-3-thione], the melting point is 133 to 134 °C. In data set [1], inhibition was half-maximal at 1.8 ± 0.1 µM (IC50).

Turning to `Cc1cccc(-n2c(-c3ccc4cccnc4c3)n[nH]c2=S)c1` [3d, 5-(Quinolin-7-yl)-4-(m-tolyl)-2,4-dihydro-3H-1,2,4-triazole-3-thione], the melting point lay in the range of 136 to 137 °C. The same compound came in with a half-inhibitory concentration (IC50) in data set [1] of 32.3 ± 0.6 µM.

Consider `O=[N+]([O-])c1ccc(-n2c(-c3ccc4cccnc4c3)n[nH]c2=S)cc1` [7d, 4-(4-Nitrophenyl)-5-(quinolin-7-yl)-2,4-dihydro-3H-1,2,4-triazole-3-thione], for which the melting point fell in the range of 127 to 128 °C. This compound showed an IC50 in data set [1] of 11.6 ± 0.2 µM.

`Fc1ccc(-n2c(-c3ccc4cccnc4c3)n[nH]c2=S)cc1` [11d, 4-(4-Fluorophenyl)-5-(quinolin-7-yl)-2,4-dihydro-3H-1,2,4-triazole-3-thione] registered a melting point of 131 to 132 °C. In data set [1], this compound came in with an IC50 of 0.8 ± 0.05 µM. Besides, the “enhanced potency than standard acarbose drug (α-amylase)” value in data set [1] (relative to acarbose) is reported as “ten-fold”.

Take `S=c1[nH]nc(-c2ccc3cccnc3c2)n1-c1ccccc1Cl` [12d, 4-(2-Chlorophenyl)-5-(quinolin-7-yl)-2,4-dihydro-3H-1,2,4-triazole-3-thione]: the melting point lay within 136 to 137 °C. Inhibition in data set [1] was half-maximal at 4.3 ± 0.1 µM (IC50).

On to `S=c1[nH]nc(-c2ccc3cccnc3c2)n1-c1ccc(Br)cc1` [17d, 4-(4-Bromophenyl)-5-(quinolin-7-yl)-2,4-dihydro-3H-1,2,4-triazole-3-thione], for which the melting point lay in the range of 132 to 133 °C. Further, the half-inhibitory concentration (IC50) in data set [1] is 19.2 ± 0.3 µM.

Compound `Fc1ccccc1-n1c(-c2ccc3cccnc3c2)n[nH]c1=S` [9d, 4-(2-Fluorophenyl)-5-(quinolin-7-yl)-2,4-dihydro-3H-1,2,4-triazole-3-thione] yielded a melting point of 129 to 130 °C. For the same compound, in data set [1], the midpoint of inhibition, the IC50, lay at 1.5 ± 0.1 µM.

For `S=c1[nH]nc(-c2ccc3cccnc3c2)n1-c1cccc(Cl)c1` [13d, 4-(3-Chlorophenyl)-5-(quinolin-7-yl)-2,4-dihydro-3H-1,2,4-triazole-3-thione], the melting point fell in the range of 141 to 142 °C. Also, in data set [1], the 50% inhibitory concentration (IC50) worked out at 14.6 ± 0.3 µM.

On to `S=c1[nH]nc(-c2ccc3cccnc3c2)n1-c1cccc(Br)c1` [16d, 4-(3-Bromophenyl)-5-(quinolin-7-yl)-2,4-dihydro-3H-1,2,4-triazole-3-thione], for which the melting point lay in the range of 130 to 131 °C. Also, the IC50 in data set [1] stood at 31.8 ± 0.6 µM.

In data set [1], `S=c1[nH]nc(-c2ccc3cccnc3c2)n1-c1ccc(-c2ccccc2)cc1` [19d] displayed an IC50 of 18.5 ± 0.3 µM.

`COc1ccc(-n2c(-c3ccc4cccnc4c3)n[nH]c2=S)cc1` [8d, 4-(4-Methoxyphenyl)-5-(quinolin-7-yl)-2,4-dihydro-3H-1,2,4-triazole-3-thione] displayed a melting point of 134 to 135 °C.

In the case of `O=[N+]([O-])c1ccccc1-n1c(-c2ccc3cccnc3c2)n[nH]c1=S` [5d, 4-(2-Nitrophenyl)-5-(quinolin-7-yl)-2,4-dihydro-3H-1,2,4-triazole-3-thione], the melting point lay in the range of 139 to 140 °C. Further, in data set [1], 5.3 ± 0.2 µM corresponded to half-maximal inhibition (IC50).

Take `Cc1ccc(-n2c(-c3ccc4cccnc4c3)n[nH]c2=S)cc1` [4d, 5-(Quinolin-7-yl)-4-(p-tolyl)-2,4-dihydro-3H-1,2,4-triazole-3-thione]: the melting point lay in the range of 127 to 128 °C. In addition, the IC50 in data set [1] came out at 21.6 ± 0.4 µM.

In turn, `Fc1cccc(-n2c(-c3ccc4cccnc4c3)n[nH]c2=S)c1` [10d, 4-(3-Fluorophenyl)-5-(quinolin-7-yl)-2,4-dihydro-3H-1,2,4-triazole-3-thione] came in with a melting point of 128 to 129 °C. In data set [1], this compound returned an IC50 of 2.1 ± 0.1 µM.

The compound `S=c1[nH]nc(-c2ccc3cccnc3c2)n1-c1ccccc1Br` [15d, 4-(2-Bromophenyl)-5-(quinolin-7-yl)-2,4-dihydro-3H-1,2,4-triazole-3-thione] yielded a melting point of 135 to 136 °C. The same compound gave an IC50 in data set [1] of 17.2 ± 0.3 µM.

The compound `Cc1ccccc1-n1c(-c2ccc3cccnc3c2)n[nH]c1=S` [2d, 5-(Quinolin-7-yl)-4-(o-tolyl)-2,4-dihydro-3H-1,2,4-triazole-3-thione] had a melting point of 139 to 140 °C. In addition, the concentration for half-maximal inhibition (IC50) in data set [1] was determined as 22.6 ± 0.6 µM.

`S=c1[nH]nc(-c2ccc3cccnc3c2)n1-c1ccc(Cl)cc1` [14d, 4-(4-Chlorophenyl)-5-(quinolin-7-yl)-2,4-dihydro-3H-1,2,4-triazole-3-thione] gave a melting point of 131 to 132 °C. In data set [1], this compound came in with an IC50 of 6.4 ± 0.3 µM. Besides, the “more potency than scaffold 7d (α-amylase)” value in data set [1] (relative to 7d) is reported as 2 folds.

Take `S=c1[nH]nc(-c2ccc3cccnc3c2)n1-c1ccccc1` [1d, 4-Phenyl-5-(quinolin-7-yl)-2,4-dihydro-3H-1,2,4-triazole-3-thione]: the melting point is 137 to 138 °C (dec.). Moreover, in data set [1], the IC50 amounted to 40.2 ± 0.7 µM.

Compound `O=[N+]([O-])c1cccc(-n2c(-c3ccc4cccnc4c3)n[nH]c2=S)c1` [6d, 4-(3-Nitrophenyl)-5-(quinolin-7-yl)-2,4-dihydro-3H-1,2,4-triazole-3-thione] returned a melting point of 130 to 131 °C. This compound also displayed a half-inhibitory concentration (IC50) in data set [1] of 21.4 ± 0.3 µM.
